Data published in patent US7163954B2, “Substituted naphthyl benzothiophene acids” (Wyeth, priority 2003, dated 2007).

Experiments:
[1] = biological target: T1, recombinant human plasminogen activator inhibitor-1 (PAI-1) (Homo sapiens, UniProt P05121); experiment: Primary screen for the PAI-1 inhibition (residual tPA activity, Spectrozyme-tPA chromogenic substrate); assay type: biochemical; conditions: 25 μM test compound; inhibition of Plasminogen Activator Inhibitor-1
T1 construct: purchased Molecular Innovations, Royal Oak, Mich
Procedure: Test compounds are dissolved in DMSO at a final concentration of 10 mM, then diluted 100× in physiologic buffer. The inhibitory assay is initiated by the addition of the test compound (1–100 μM final concentration, !maximum DMSO concentration of 0.2%) in a pH 6.6 buffer containing 140 nM recombinant human plasminogen activator inhibitor-1 (PAI-1; Molecular Innovations, Royal Oak, Mich.). Following a 1 hour incubation at room temperature, 70 nM of recombinant human tissue plasminogen activator (tPA) is added, and the combination of the test compound, PAI-1 and tPA is incubated for an additional 30 minutes. Following the second incubation, Spectrozyme-tPA (American Diagnostica, Greenwich, Conn.), a chromogenic substrate for tPA, is added and absorbance read at 405 nm at 0 and 60 minutes. Relative PAI-1 inhibition is equal to the residual tPA activity in the presence of the test compound and PAI-1. Control treatments include the complete inhibition of tPA by PAI-1 at the molar ratio employed (2:1), and the absence of any effect of the test compound on tPA alone.

T1 sequence (P05121 24-402): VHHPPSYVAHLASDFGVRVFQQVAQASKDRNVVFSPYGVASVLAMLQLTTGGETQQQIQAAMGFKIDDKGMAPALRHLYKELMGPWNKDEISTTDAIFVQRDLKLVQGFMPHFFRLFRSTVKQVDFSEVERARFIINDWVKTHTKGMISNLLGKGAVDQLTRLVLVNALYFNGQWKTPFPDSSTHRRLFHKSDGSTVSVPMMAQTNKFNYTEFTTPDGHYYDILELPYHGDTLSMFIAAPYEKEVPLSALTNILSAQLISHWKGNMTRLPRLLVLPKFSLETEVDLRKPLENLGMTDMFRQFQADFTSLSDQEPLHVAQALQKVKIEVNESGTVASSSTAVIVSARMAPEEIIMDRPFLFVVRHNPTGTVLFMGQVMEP

SMILES | inhibition at 25 µM [1] | melting point
CC(C)CC(=O)c1c(-c2ccc3c(Br)c(OCc4nnn[nH]4)ccc3c2)sc2ccccc12 [Compound 5, 1-{2-[5-Bromo-6-(1H-tetrazol-5-ylmethoxy)-naphthalen-2-yl]-benzo[b]thiophen-3-yl}-3-methyl-butan-1-one] | 84% | 
CCCCC(=O)c1c(-c2ccc3c(Br)c(OCc4nnn[nH]4)ccc3c2)sc2ccccc12 [Compound 1, 1-{2-[5-Bromo-6-(1H-tetrazol-5-ylmethoxy)-naphthalen-2-yl]-benzo[b]thiophen-3-yl}-pentan-1-one] | 59% | 
CC(C)(C)CC(=O)c1c(-c2ccc3c(Br)c(OCC(=O)O)ccc3c2)sc2ccccc12 [Compound 6, {1-Bromo-6-[3-(3,3-dimethyl-butyryl)-benzo[b]thiophen-2-yl]-naphthalen-2-yloxy}-acetic acid] | 77% | 206 to 207 °C
O=C(O)COc1ccc2cc(-c3sc4ccccc4c3C(=O)Cc3ccccc3)ccc2c1Br [Compound 4, [1-Bromo-6-(3-phenylacetyl-benzo[b]thiophen-2-yl)-naphthalen-2-yloxy]-acetic acid] | 54% | 170 to 172 °C
CCCCC(=O)c1c(-c2ccc3c(Br)c(OCC(=O)O)ccc3c2)sc2ccccc12 [Compound 2, [1-Bromo-6-(3-pentanoyl-benzo[b]thiophen-2-yl)-naphthalen-2-yloxy]-acetic acid] | 69% | 164 to 165 °C
O=C(Cc1ccccc1)c1c(-c2ccc3c(Br)c(OCc4nnn[nH]4)ccc3c2)sc2ccccc12 [Compound 3, 1-{2-[5-Bromo-6-(1H-tetrazol-5-ylmethoxy)-naphthalen-2-yl]-benzo[b]thiophen-3-yl}-2-phenyl-ethanone] | 52% | 
